The text below walks through data of PubChem BioAssay (NCI).

Several values for one entry are separate records, joined by “and”; a condition that tells them apart may be missing. Identical values can stand only once.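 Five concentrations, 48 hours, 96-well plates. Abbreviation: GI50, concentration required for 50% inhibition of growth. TGI marks complete inhibition of growth.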 A value given as a limit tells only on which side of the number the result lay.

Test systems include MOLT-4 leukemia; RPMI-8226 leukemia; HT29 colon; OVCAR-5 ovarian; EKVX NSCLC; MDA-MB-435; SNB-75 CNS; HS 578T breast; T-47D breast; SK-MEL-28 melanoma.
Holding throughout (assay): inhibition of tumour cell growth, NCI panel, 48 h

As to `COc1ccc(-n2sc(=O)n(Cc3ccc(COC(=O)C(C)c4ccc(CC(C)C)cc4)cc3)c2=O)cc1` (configuration not stated), the GI50 with MOLT-4 leukemia is 1.21 µM; in the assay on RPMI-8226 leukemia, 1.51 µM; in the assay with HT29 colon, 2.12 µM; with OVCAR-5 ovarian, 5.58 µM; with EKVX NSCLC, 7.36 µM; in the assay with MDA-MB-435, 1.32 µM. The GI50 in the assay on SNB-75 CNS was 5.95 µM; in the assay with HS 578T breast it was 4.77 µM; with T-47D breast, 1.32 µM; in the assay on SK-MEL-28 melanoma, 3.02 µM. Moreover, the TGI with MOLT-4 leukemia is 3.89 µM; with RPMI-8226 leukemia, 4.11 µM; in the assay with HT29 colon, 16.1 µM; in the assay with OVCAR-5 ovarian, 11.8 µM; in the assay with EKVX NSCLC it was 14.3 µM; in the assay on MDA-MB-435, 3.93 µM. The TGI with SNB-75 CNS was 12.2 µM; with HS 578T breast, 13.8 µM; in the assay on T-47D breast, 5.54 µM; with SK-MEL-28 melanoma, 9.53 µM.
With `N#CC[C@H](C1CCCC1)n1cc(-c2ncnc3[nH]ccc23)cn1`, the GI50 with MOLT-4 leukemia was 20.7 µM; with RPMI-8226 leukemia, 36 µM; in the assay with HT29 colon, 19.7 µM; in the assay on OVCAR-5 ovarian, 26.7 µM; in the assay on EKVX NSCLC it was 14.9 µM; in the assay on MDA-MB-435, 26.4 µM. For the same compound, the GI50 was 3.3 µM with SNB-75 CNS, 5.19 µM in the assay with HS 578T breast, 23.8 µM in the assay on T-47D breast and 31.8 µM in the assay on SK-MEL-28 melanoma. The TGI is over 78.8 µM in the assay on MOLT-4 leukemia; over 100 µM in the assay with RPMI-8226 leukemia; 41.5 µM in the assay with HT29 colon; over 78.5 µM in the assay on OVCAR-5 ovarian; over 83.7 µM in the assay on EKVX NSCLC; over 93.2 µM in the assay on MDA-MB-435. The TGI in the assay on SNB-75 CNS is over 61.8 µM; in the assay with HS 578T breast it was 69.9 µM; with T-47D breast, over 91.1 µM; in the assay on SK-MEL-28 melanoma, over 100 µM.
For the compound `COC(=O)Nc1nc2ccc(Sc3ccccc3)cc2[nH]1`, the GI50 was 0.262 µM in the assay on MOLT-4 leukemia; 0.358 µM in the assay on RPMI-8226 leukemia; 0.0494 µM in the assay with HT29 colon; 0.511 µM with OVCAR-5 ovarian; 1.64 µM with EKVX NSCLC; 0.0307 µM in the assay with MDA-MB-435. Besides, the GI50 with SNB-75 CNS is 0.195 µM; in the assay with HS 578T breast, 0.26 µM; in the assay with T-47D breast, 0.436 µM; in the assay with SK-MEL-28 melanoma it was 0.387 µM. For the same compound, the TGI was over 36.6 µM in the assay on RPMI-8226 leukemia; 1.29 µM in the assay with HT29 colon; 23.4 µM in the assay with OVCAR-5 ovarian; 53.6 µM in the assay with EKVX NSCLC; 0.111 µM in the assay on MDA-MB-435; 2.05 µM in the assay on SNB-75 CNS. In addition, the TGI was 11.2 µM with HS 578T breast, over 81.2 µM with T-47D breast and 15.5 µM in the assay with SK-MEL-28 melanoma.
As for `Brc1ccc(Br)nn1`, the GI50 in the assay on MOLT-4 leukemia is 1.69 µM; in the assay with RPMI-8226 leukemia, 1.83 µM; with HT29 colon, 3.38 µM; in the assay on OVCAR-5 ovarian, 11.7 µM; with EKVX NSCLC, 8.17 µM; with MDA-MB-435, 1.75 µM. Also, the GI50 in the assay on SNB-75 CNS is 1.97 µM; with HS 578T breast, 1.75 µM; in the assay with T-47D breast, 1.36 µM; with SK-MEL-28 melanoma, 1.42 µM. Further, the TGI with MOLT-4 leukemia is 5.48 µM; in the assay with RPMI-8226 leukemia, 6.44 µM; in the assay on HT29 colon, over 22.3 µM; in the assay with OVCAR-5 ovarian, 24.8 µM; in the assay on EKVX NSCLC, 24.7 µM; in the assay with MDA-MB-435, 3.55 µM. Further, the TGI in the assay with SNB-75 CNS came to 8.41 µM; in the assay on HS 578T breast it was 28.1 µM; in the assay with T-47D breast it was 3.77 µM; in the assay on SK-MEL-28 melanoma it was 2.76 µM.
Turning to `C=C1C(=O)OC2CC3(C)OC3C3OC3C3=CC(OC3=O)C12` (configuration not stated), the GI50 with MOLT-4 leukemia was 3.25 µM; with RPMI-8226 leukemia it was 7.34 µM; in the assay with HT29 colon, 3.21 µM; in the assay on OVCAR-5 ovarian it was 9.05 µM; in the assay with EKVX NSCLC, 19 µM; in the assay on MDA-MB-435, 9.57 µM. Also, the GI50 in the assay with SNB-75 CNS is 14.5 µM; with HS 578T breast, 19.3 µM; in the assay on T-47D breast, 1.17 µM; in the assay with SK-MEL-28 melanoma, 5.75 µM. Besides, the TGI was found to be 9.75 µM with MOLT-4 leukemia; 33.2 µM in the assay with RPMI-8226 leukemia; 10.8 µM with HT29 colon; 25.7 µM in the assay on OVCAR-5 ovarian; 41.9 µM with EKVX NSCLC; 29.3 µM in the assay on MDA-MB-435. Also, the TGI worked out at 38.6 µM in the assay on SNB-75 CNS, 68.7 µM in the assay on HS 578T breast, 4.45 µM in the assay on T-47D breast and 12.5 µM with SK-MEL-28 melanoma.
With `O=C1c2ccccc2C(=O)c2c(NC(=O)c3ccc4c5c(ncnc35)-c3ccccc3C4=O)cccc21`, the TGI in the assay with MOLT-4 leukemia, in the assay on RPMI-8226 leukemia, in the assay on HT29 colon, in the assay with OVCAR-5 ovarian, with EKVX NSCLC and in the assay on MDA-MB-435 was over 100 µM throughout. Besides, the TGI with SNB-75 CNS was 58.5 µM; with HS 578T breast, over 100 µM; with T-47D breast, over 100 µM; in the assay with SK-MEL-28 melanoma, over 100 µM.
Take `CN(C)CCOc1nc2ccccc2c2c1-c1ccc(Cl)cc1C2=O`: the GI50 with MOLT-4 leukemia was 0.302 µM; in the assay with RPMI-8226 leukemia, 0.617 µM; with HT29 colon, 0.453 µM; with OVCAR-5 ovarian it was 1.27 µM; in the assay on EKVX NSCLC it was 2.06 µM; in the assay with MDA-MB-435, 0.489 µM. Moreover, the GI50 in the assay with SNB-75 CNS was 1.22 µM; in the assay on HS 578T breast it was 0.728 µM; in the assay on T-47D breast, 1.53 µM; in the assay with SK-MEL-28 melanoma, 1.65 µM. The TGI with MOLT-4 leukemia was 1.51 µM; with RPMI-8226 leukemia, 2.35 µM; in the assay with HT29 colon, 1.63 µM; in the assay with EKVX NSCLC it was 6.85 µM; with MDA-MB-435, 1.88 µM; in the assay on SNB-75 CNS, 2.62 µM. Also, the TGI stood at 3.59 µM in the assay on HS 578T breast, 4.55 µM in the assay on T-47D breast and 3.15 µM in the assay on SK-MEL-28 melanoma.
Consider `CN(NC(=O)CC(=O)NN(C)C(=S)c1ccc(Cl)cc1)C(=S)c1ccc(Cl)cc1`, for which the GI50 in the assay with MOLT-4 leukemia was 17.6 µM; in the assay with RPMI-8226 leukemia, 12.6 µM; with HT29 colon, 23.6 µM; with OVCAR-5 ovarian, 25.9 µM; in the assay on EKVX NSCLC it was 18.8 µM; with MDA-MB-435 it was 24.4 µM. The GI50 with SNB-75 CNS was 22.5 µM; with HS 578T breast it was 17.7 µM; with T-47D breast it was 21.8 µM; in the assay on SK-MEL-28 melanoma, 15 µM. Besides, the TGI in the assay with MOLT-4 leukemia, in the assay on RPMI-8226 leukemia, with HT29 colon, with OVCAR-5 ovarian, with EKVX NSCLC and in the assay on MDA-MB-435 was over 100 µM in each case. Besides, the TGI in the assay on SNB-75 CNS is over 100 µM; in the assay on HS 578T breast, 48.7 µM; with T-47D breast, over 100 µM; with SK-MEL-28 melanoma it was 54.5 µM.
As to `C=C=[CH][Sn]([c]1ccccc1)([c]1ccccc1)[c]1ccccc1`, the GI50 in the assay on MOLT-4 leukemia is 1.14 µM; in the assay with RPMI-8226 leukemia, 1.4 µM; in the assay with HT29 colon, 1.21 µM; with OVCAR-5 ovarian it was 1.46 µM; with EKVX NSCLC it was 1.7 µM; in the assay with MDA-MB-435, 1.3 µM. Further, the GI50 is 1.31 µM in the assay with SNB-75 CNS, 2.06 µM in the assay with HS 578T breast, 1.29 µM in the assay on T-47D breast and 1.71 µM in the assay on SK-MEL-28 melanoma. Also, the TGI in the assay on MOLT-4 leukemia stood at 6.49 µM; in the assay with RPMI-8226 leukemia, 4.36 µM; in the assay on HT29 colon, 2.45 µM; in the assay with OVCAR-5 ovarian, 2.9 µM; in the assay with EKVX NSCLC it was 4.78 µM; in the assay on MDA-MB-435 it was 2.68 µM. The TGI with SNB-75 CNS was found to be 4.72 µM; in the assay with HS 578T breast it was 7.37 µM; in the assay on T-47D breast it was 2.82 µM; with SK-MEL-28 melanoma, 3.34 µM.
Regarding `C[C@@H]1CN2[C@H]3[C@@H]1CC[C@]31CCC(=O)O[C@]1(C)[C@@H]1CC[C@H]3CCC=C3[C@@H]12`, the GI50 with MOLT-4 leukemia was over 70 µM; in the assay with RPMI-8226 leukemia it was over 70 µM; in the assay on HT29 colon, over 70 µM; with OVCAR-5 ovarian, over 70 µM; with EKVX NSCLC, over 70 µM; with MDA-MB-435, 48.2 µM. For the same compound, the GI50 was 35.3 µM in the assay on SNB-75 CNS, over 70 µM in the assay on HS 578T breast, over 70 µM in the assay on T-47D breast and over 70 µM in the assay on SK-MEL-28 melanoma. The TGI with MOLT-4 leukemia, in the assay with RPMI-8226 leukemia, with HT29 colon, in the assay on OVCAR-5 ovarian, in the assay on EKVX NSCLC and in the assay with MDA-MB-435 was over 70 µM throughout. The TGI in the assay with SNB-75 CNS, in the assay on HS 578T breast, in the assay on T-47D breast and with SK-MEL-28 melanoma was over 70 µM in each case.
For `CC[C@@]1(OC(=O)CN)C(=O)OCc2c1cc1n(c2=O)Cc2cc3c(N)c4c(cc3nc2-1)OCO4`, the GI50 in the assay on MOLT-4 leukemia was under 0.0001 µM; in the assay with RPMI-8226 leukemia, 0.00261 µM; in the assay with OVCAR-5 ovarian, 0.0065 µM and 0.0427 µM; with EKVX NSCLC it was 0.0808 µM; in the assay with MDA-MB-435 it was 0.00328 µM and 0.0183 µM; in the assay on SNB-75 CNS it was 0.000442 µM. In addition, the GI50 is 0.232 µM with HS 578T breast; 0.0409 µM and 0.119 µM with SK-MEL-28 melanoma. Also, the TGI with MOLT-4 leukemia is 0.146 µM; in the assay on RPMI-8226 leukemia it was 0.719 µM; in the assay with HT29 colon, over 100 µM; in the assay with SNB-75 CNS, 0.824 µM; with T-47D breast, over 100 µM; with SK-MEL-28 melanoma it was over 100 µM.
